# Experimental data published in patent publication US20080076746A1, “Method of Treating Fish and Crustaceans With a Tellurium Based Immunomodulator” (priority 2003, published 2008).
# “Also recorded” adds a separate entry of the source.
# Legend:
# [1] = tested on: tilapia PBL (peripheral blood leukocytes); test: Cell toxicity in AS101-treated cell cultures (Blue staining); type: cell-based, Tilapia hybrids (Oreochromis niloticus X O. aureus); details: all AS101 doses, vs control
# Experimental: PBL (peripheral blood leukocytes) were isolated from heparinized blood on a ficoll paque bed (Amersham Bioscience) and cultured as previously reported (9). For AS101 treatments, AS101 was added directly to the cultures at final concentration of 0.025 to 25 μg/ml, preferably 0.05 to 0.5 μg/ml.
# tilapia IL-10L = test: AS101 effect on intracellular IL-10L levels of tilapia PBL cell cultures (Western blot); type: cell-based, Tilapia hybrids (Oreochromis niloticus X O. aureus); details: 0.5 μg/ml AS101; dose-dependant; FIG. 1
# Experimental: For in-vitro studies, AS101 was supplied as PBS solution, pH 7.4, at 4° C. For in-vivo experiments, AS101 powder was dissolved in the appropriate concentration in re-circulating water. PBL (peripheral blood leukocytes) were isolated from heparinized blood on a ficoll paque bed (Amersham Bioscience) and cultured as previously reported (9). For AS101 treatments, AS101 was added directly to the cultures at final concentration of 0.025 to 25 μg/ml, preferably 0.05 to 0.5 μg/ml. PBL were lysed as previously reported (6). Samples were electrophoresed on 12% SDS-PAGE and blotted with anti-human-IL-10 mAb (Santa Cruz Biotechnology, Inc sc-8438) (1:660 dilution) and HRP-conjugate secondary Ab (Jackson Immuno-Research) (1:6600 dilution).
# Aeromonas salmonicida = test: Stressed fish infected with Aeromonas salmonicida and immersed in soluble AS101; type: in vivo, goldfish (Carassius auratus); details: vs stressed infected fish not treated with AS101
# Experimental: (§1) Fish were subjected to air exposure stress every 60 min for 90 sec during 4 hours (10). The fish were then divided into groups of 3, each separately held in 40 L plastic containers at 28°±2° C.
# IL-10L = test: Serum IL-10L levels in air-exposure stressed fish after AS101 bath immersion (ELISA); type: in vivo
# Experimental: For in-vitro studies, AS101 was supplied as PBS solution, pH 7.4, at 4° C. For in-vivo experiments, AS101 powder was dissolved in the appropriate concentration in re-circulating water.
# as §1
# Fish blood was coagulated during 2 hours at room temperature, then centrifuged for 10 min at 1800×g. IL-10L levels were quantified in the collected sera using ELISA (Human Interleukin-10 ELISA Kit, pierce-endogen) according to manufacturer's instructions.
structure (smiles),measurement,setting,value
"Cl[TeH]1(Cl)(Cl)OCCO1 [AS101, ammonium trichloro [dioxyethylene-O, O′] telurate]",cell death (cell toxicity),[1],did not show elevated cell death beyond control
same,inhibition of intracellular tilapia IL-10L synthesis,tilapia IL-10L,complete inhibition
same,rate of survival,Aeromonas salmonicida; FIG. 5,higher survival rates; also recorded: higher rate of survival
same,number of wounds per fish,"Aeromonas salmonicida; p=0.073, FIG. 4",significantly lower number of wounds per fish; also recorded: significantly less wounds
same,serum IL-10L level,"IL-10L; 2 hours post-stress, bath immersion in 20-ppm water solution, maximal effect, decrease from 719 in stressed fish, FIG. 3",209 pg/mL
same,serum IL-10L change,"IL-10L; 6 hours after stress induction and bath immersion in different AS101 concentrations, 20 μg/ml most efficient",significant IL-10L decrease
